Source: PubChem BioAssay (NCI)
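1) Cells in 96-well plates. 2) Compound, 48 h, 5 concentrations. 3) Linear interpolation between surrounding doses. 4) Unreached endpoint = highest concentration. The concentration for full growth arrest is given as TGI.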

Experiments:
Assay in all cases: NCI anticancer screen, dose series, 48 h
LOX IMVI melanoma = system: LOX IMVI melanoma
SR leukemia = system: SR leukemia
RXF 393 renal = system: RXF 393 renal
MDA-MB-231 breast = system: MDA-MB-231 breast
HCT-15 colon = system: HCT-15 colon
MDA-MB-435 = system: MDA-MB-435
SF-539 CNS = system: SF-539 CNS
ACHN renal = system: ACHN renal
RPMI-8226 leukemia = system: RPMI-8226 leukemia
SK-MEL-2 melanoma = system: SK-MEL-2 melanoma
OVCAR-4 ovarian = system: OVCAR-4 ovarian
A498 renal = system: A498 renal
MCF7 breast = system: MCF7 breast
SW-620 colon = system: SW-620 colon
CCRF-CEM leukemia = system: CCRF-CEM leukemia
NCI-H226 lung = system: NCI-H226 lung
OVCAR-8 ovarian = system: OVCAR-8 ovarian

Measured: TGI

Cc1nc2ccc(Cl)cc2c2c1CCN2c1ccc(F)cc1
78.1 µM: LOX IMVI melanoma
54.8 µM: SF-539 CNS
81.3 µM: MDA-MB-231 breast
73.8 µM: SR leukemia
68.4 µM: A498 renal
63.6 µM: MDA-MB-435
59.1 µM: MCF7 breast
88.8 µM: NCI-H226 lung
65.1 µM: RPMI-8226 leukemia
93.3 µM: RXF 393 renal
> 100 µM: all other assays above

Cc1c(-c2ccccc2)c(C#N)c2nnn(-c3ccc(Cl)cc3)c(=O)n12
> 100 µM: all assays above

FC(F)(F)c1ccc2c(-c3cc[nH]c3)ccnc2c1
46.2 µM: RXF 393 renal
51.8 µM: A498 renal
48.9 µM: LOX IMVI melanoma
84.9 µM: SR leukemia
95.2 µM: RPMI-8226 leukemia
> 100 µM: all other assays above

O=C(/C=C/c1ccc([N+](=O)[O-])cc1)N1CCN(CCOC(c2ccc(F)cc2)c2ccc(F)cc2)CC1
36.9 µM: RPMI-8226 leukemia
40.5 µM: SR leukemia
> 100 µM: all other assays above

CCCCCCCCCCC/C=C(/C(=O)CCCO[Si](C)(C)C(C)(C)C)C(=O)OC
> 100 µM: all assays above

N#Cc1ccc(C2ON=C(c3ccccc3)N2C23CC4CC(CC(C4)C2)C3)cc1 (stereo not given)
> 10 µM: all assays above

C/C(O)=C(/C=N/C(=S)Nc1ccccc1)C(=O)Nc1ccccc1C
> 100 µM: all assays above

Cn1c(-c2ccccc2)cc(-c2ccc3c(c2)OCO3)c1-c1ccsc1
> 100 µM: all assays above

NC(=O)N/N=C\CC(O)(C(F)(F)Cl)C(F)(F)Cl
> 10 µM: all assays above

O=C1c2cc3c(cc2CC12Cc1ccccc1C2)CCC3
36 µM: LOX IMVI melanoma
97.7 µM: ACHN renal
98.3 µM: CCRF-CEM leukemia
93.2 µM: SF-539 CNS
66.7 µM: MDA-MB-231 breast
73.8 µM: NCI-H226 lung
54.6 µM: MCF7 breast
74.7 µM: SR leukemia
67.2 µM: RXF 393 renal
76.7 µM: OVCAR-8 ovarian
51.8 µM: SK-MEL-2 melanoma
73.1 µM: MDA-MB-435
68.2 µM: RPMI-8226 leukemia
> 100 µM: all other assays above

CC(=O)Nc1ccc(S(=O)(=O)c2nnc(NC(C)=O)s2)cc1
> 100 µM: all assays above

CCN(CC)CCCNc1ccc([N+](=O)[O-])c2nc3ccccc3c(N)c12
2.9 µM: MDA-MB-435
1.94 µM: OVCAR-4 ovarian
2.04 µM: SW-620 colon
2.53 µM: SK-MEL-2 melanoma
2.91 µM: CCRF-CEM leukemia
2.55 µM: HCT-15 colon
2.24 µM: MCF7 breast
9.95 µM: A498 renal
1.88 µM: SF-539 CNS
1.52 µM: RXF 393 renal
4.51 µM: OVCAR-8 ovarian
8.35 µM: RPMI-8226 leukemia
2.09 µM: MDA-MB-231 breast
4.56 µM: SR leukemia
> 10 µM: NCI-H226 lung
2.14 µM: LOX IMVI melanoma

COc1ccc2c(=O)c3ccoc3[nH]c2c1
> 100 µM: all assays above

COc1ccc(C2(CC(C)C)CCNC2)cc1OC (stereo not given)
not listed: SF-539 CNS
> 100 µM: all other assays above

O=C1c2ccccc2CC12Cc1cc3c(cc1C2)CCC3
57.5 µM: SR leukemia
> 100 µM: all other assays above

CCS1=C2C(=O)CC(C)(C)CC2=Nc2ccccc21 (stereo not given)
not listed: SF-539 CNS
> 100 µM: all other assays above

O=C1N[C@H]2C(=O)c3c(Br)sc(Br)c3[C@H]2O1
25.4 µM: MCF7 breast
11.4 µM: LOX IMVI melanoma
33.2 µM: A498 renal
4 µM: HCT-15 colon
6.27 µM: SR leukemia
4.76 µM: SW-620 colon
22.4 µM: MDA-MB-231 breast
13 µM: OVCAR-8 ovarian
34.6 µM: NCI-H226 lung
> 45 µM: RPMI-8226 leukemia
10.4 µM: RXF 393 renal
26.7 µM: MDA-MB-435
31.9 µM: SK-MEL-2 melanoma
18.1 µM: ACHN renal
31.3 µM: OVCAR-4 ovarian
3.63 µM: CCRF-CEM leukemia
32.1 µM: SF-539 CNS

Cc1cccc(N=Nc2c(C)nn(C(=O)CC(=O)Nc3ccc(Cl)cc3)c2C)c1
98.6 µM: CCRF-CEM leukemia
41.8 µM: SR leukemia
> 100 µM: all other assays above

NC(=O)c1ncn(C2C=CC(CP(=O)(O)O)C2)c1N (stereo not given)
not listed: A498 renal
> 100 µM: all other assays above

Cc1cc(C)n(-c2nc(-n3nc(C)cc3C)nc(-n3nc(C)cc3C)n2)n1
> 100 µM: all assays above

C/C(=C/CC[C@](C)(OC1OC(CO)C(O)C(O)C1O)[C@H]1CC[C@]2(C)[C@@H]1CC[C@@H]1[C@@]3(C)CC[C@H](O)C(C)(C)[C@@H]3C[C@H](O)[C@]12CO)CO (stereo not given in full)
not listed: SK-MEL-2 melanoma
> 100 µM: all other assays above

O=C(CCN1CCCCC1)Nc1ccc2c(c1)C(=O)c1ccc(NC(=O)CCN3CCCCC3)cc1C2=O
11.1 µM: CCRF-CEM leukemia
5.91 µM: MCF7 breast
17.6 µM: RXF 393 renal
7.63 µM: HCT-15 colon
13.7 µM: OVCAR-8 ovarian
8.45 µM: OVCAR-4 ovarian
4.62 µM: SW-620 colon
6.49 µM: SR leukemia
3.25 µM: MDA-MB-435
7.13 µM: SF-539 CNS
29.6 µM: NCI-H226 lung
23.9 µM: ACHN renal
3.6 µM: MDA-MB-231 breast
3.43 µM: LOX IMVI melanoma
14.6 µM: RPMI-8226 leukemia
26.7 µM: A498 renal
9.92 µM: SK-MEL-2 melanoma

Oc1ccc(Br)cc1C=Nc1c(NC2CCCCC2)oc2ccc(Br)cc12
83.2 µM: MCF7 breast
27.1 µM: RXF 393 renal
38.7 µM: LOX IMVI melanoma
20.2 µM: CCRF-CEM leukemia
not listed: SK-MEL-2 melanoma
> 100 µM: all other assays above
